The test system of one data set is VEGF promoter. Nature of the data set: VEGF transcription inhibitory activity (VEGF-PLAP reporter, U251/1-8 cells under hypoxic conditions). Type of data set: cell-based. The settings on record: Homo sapiens, U-251, hypoxic (2% O2) incubator 18 hours, n=2 to 3. An excerpt: In order to prepare a reporter system in which transcription from a VEGF promoter is reflected, a VEGF promoter sequence was cloned and inserted into a placental alkaline phosphatase (PLAP) vector to construct a reporter vector.
In order to obtain a promoter region of human VEGF, a VEGF genome was cloned from a phage library. Based on VEGF cDNA (GenBank accession number: X62568), a PCR primer in the sequence described as SEQ ID NO: 1 or SEQ ID NO: 2 was designed to conduct PCR, thereby obtaining about a fragment of 340 bp. A human genomic phage library (human genomic library, Clontech) was screened using this fragment as a probe to obtain pUC18-VEGFA containing a VEGF5′ franking region of about 5.4 kb. This pUC18-VEGFA was cut with Kpn I/Nhe I to obtain a VEGF promoter region of about 2.3 kb, and the region was inserted into the multicloning site Kpn I/Nhe I of the placental alkaline phosphatase (PLAP) reporter vector (Goto et al., Mol. Pharmacol., 49, 860-873, 1996) to construct a VEGF-PLAP vector.
The above-described VEGF-PLAP vector was introduced into U251 cells cultured in a Dulbecco's modified Eagle's medium containing 10% fetal bovine serum (DMEM, manufactured by Sigma Co.), and cultured in the presence of 1 mg/mL G418 (Merck & Co., Inc.) to establish a G418-resistant stable clone (U251/1-8 cells).
As in a report by Minchenko et al. (Cell. Mol. Biol. Res., 40, 35-39, 1994), U251/1-8 cells were confirmed to be a reporter system which secretes PLAP into a culture medium under hypoxic conditions (2% O2 incubator), and in which transcription from a VEGF promoter is reflected. A compound inhibiting VEGF production induced by hypoxic stimulation was screened using this clone.
In order to eliminate influence of the alkali phosphatase in the serum, the U251/1-8 cells were washed with a sufficient amount of PBS (Phosphate buffered saline) twice, and treated at 65° C. for 20 minutes to inactivate the alkaline phosphatase in the serum. 4×10^4 cells/180 μL per well of the cells diluted in the DMEM culture medium containing 10% of this serum were plated in a 96-well plate.
The cells were cultured in a CO2 incubator (5% CO2) at 37° C. overnight, and 20 μL of the above-described culture solution containing the test compound at threefold serial dilutions was added. Subsequently, the cells were cultured in hypoxic (2% O2) incubator for 18 hours. To measure the PLAP activity in the culture supernatant liquid, 10 μL of the culture supernatant liquid was added to 50 μL of a 0.28 M Na2CO3—NaHCO3 buffer solution (pH 10.0, 8.0 mM MgSO4), and finally 50 μL of an alkaline phosphatase substrate (Lumistain, Genome Science Laboratories Co., Ltd.) was added thereto. After the reaction for one hour, chemiluminescence was detected using a microplate reader (PerkinElmer) to measure the PLAP activity as the alkaline phosphatase activity. The PLAP activity under normoxic conditions was defined as 0%, the PLAP activity of the cells when treated under hypoxic conditions was defined as 100%, and the concentration for inhibiting 50% of the PLAP activity was defined as the IC50 value of PLAP. The IC50 values of the 6-deoxy 11107D derivatives shown in examples were determined (n=2 to 3).

For data set [1], the system named is WiDr human colon cancer cells. Nature of the data set: Action of inhibiting proliferation of WiDr human colon cancer cells (MTT). It is filed as cell-based. The settings on record: 72 h, three days, n=2 to 3, read-out: WiDr human colon cancer cell proliferation inhibitory activity (IC50: nM). As to the method: 2×10^3 cells/well of WiDr human colon cancer cells cultured in a Dulbecco's modified Eagle's medium containing 10% fetal bovine serum, penicillin (100 units/mL) and streptomycin (100 μg/mL) (DMEM, manufactured by Sigma Co.) were plated in a 96-well plate. The cells were cultured in a CO2 incubator overnight, and 20 μL of the above-described culture solution containing the test compound at threefold serial dilutions was added for culturing the cells. After three days, 50 μL of a 3.3 mg/mL MTT solution was added, and the cells were further cultured for one hour. Then, formazan generated by reduction using living cells was extracted with 100 μL of DMSO to measure the absorbance (A540/A660), which was used as an index of the number of living cells.
The concentration for inhibiting 50% of proliferation of WiDr human colon cancer cells (IC50 value) of the compound of the formula (I) was determined (n=2 to 3).

A further data set relates to WiDr human colon tumors. Nature of the data set: Solid cancer growth inhibitory action, WiDr cells subcutaneously implanted in nude mice. It is filed as in vivo, nude mouse. The settings on record: 0.625 mg/kg/day intravenously, 15th day, control group as 100%. As for the experimental part: (§1) In order to examine the solid cancer growth inhibitory activity of the compound of the formula (I) in vivo, WiDr human colon cancer cells were subcutaneously implanted into the body of each nude mouse. […] The control group consisted of ten mice, and the 6-deoxy 11107D derivative-administration group consisted of five mice. The derivative was intravenously injected at 0.625 mg/kg/day, 1.25 mg/kg/day, 2.5 mg/kg/day, 5 mg/kg/day, or 10 mg/kg/day to each mouse of the administration group, and a vehicle was administered to each mouse of the control group.
(§2) The tumor volumes on the 15th day were measured to determine the relative tumor weight ratio (T/C %), based on the tumor weight of each mouse of the control group as 100%. The body weights on the day of the start of administration, 5th day, 8th day, 12th day and 15th (or 16th) day were measured to examine the relative body weight variations in the case of administering the representative compounds, based on the body weights on the day of the start of administration as 100%. The minimum relative body weight ratios, which are the relative body weight ratios on the day when the body weights were lightest, are shown in Table 3.

Data set [2] in a line: Body weight reduction (acute toxicity) in the WiDr nude mouse test. The settings on record: 0.625 mg/kg/day intravenously, nude mice, day when body weights were lightest, relative to day of start of administration. Type of data set: in vivo. As for the experimental part:
as §1, §2

Data set [3] is described as follows: Stability in an aqueous solution (HPLC). It is filed as physicochemical. The settings on record: for Remaining percentage (%): pH 7 Britton-Robinson buffer solution, 25° C., 24 hours. As for the experimental part: The compound of the formula (I) was dissolved in DMSO at a concentration of 10 to 20 mM, and the solution was diluted with a pH 7 Britton-Robinson buffer solution to about 500-fold. This solution was used as a sample solution, and was incubated at 25° C. for 24 hours.
The sample solution before and after the incubation was analyzed using high-performance liquid chromatography to obtain a chromatogram. The percentage of the compound remaining in the sample solution after the incubation was determined from the peak area of the chromatogram.

Data set [4] deals with P388 mouse leukemia cells. As to conditions: cited from earlier work.
Data set [5] concerns P388 mouse leukemia cells. The settings on record: RPM-1640 culture medium; cited from earlier work.
The test system of data set [6] is L-1210 mouse leukemia cells. The settings on record: RPM-1640 culture medium; cited from earlier work.
Data set [7] concerns HL-60 human leukemia cells. The settings on record: RPM-1640 culture medium; cited from earlier work.

These results are taken from patent US7256178B2, “Physiologically active substances” (priority 2002, dated 2007).

For `CCC(O)C(C)C1OC1CC(C)(O)/C=C/C=C(\C)C1OC(=O)CC(O)CCC(C)C(OC(=O)N2C[C@@H]3C[C@H]2CN3C)/C=C/C1C` (stereo partly drawn) [Compound 55, (8E,12E,14E)-3,16,21-trihydroxy-6,10,12,16,20-pentamethyl-7-(((1S,4S)-5-methyl-2,5-diazabicyclo[2.2.1]heptan-2-yl)carbonyl)oxy-18,19-epoxytricosa-8,12,14-trien-11-olide], the IC50 was determined as 1.1 nM in the data set on VEGF promoter and 0.6 nM in [1]. In the data set on WiDr human colon tumors, the “WiDr human colon tumor growth inhibitory activity T/C(%)” value stood at 11%. For the same compound, in data set [2], the “Minimum relative body weight ratio” value was 0.80. In addition, in data set [3], the “Remaining percentage (%)” value was 95.7%.
`CCC(OC)C(C)C1OC1C(O)C(C)/C=C/C=C(\C)C1OC(=O)CC(O)CCC(C)(O)C(OC(C)=O)/C=C/C1C` (stereo not drawn) [FD-895]: the “Stability in an aqueous solution (in words)” value in [3] is recorded as “instable in an aqueous solution”. Moreover, the “Remaining percentage (%)” value in [3] is 83.0%; in [3] (listed as FD895) it was 83%. Further, the “Antitumor activity in vivo” value in data set [4] was “did not show antitumor activity”. Moreover, the “Cytotoxic activity in vitro” value in data set [5], in data set [6] and in data set [7] was “has cytotoxic activity” in each case.
